Tests used:
Type in all cases: biochemical
Settings in all cases: ADP-Glo SIK kinase assay
[1] = molecular target: T1, SIK3 (Homo sapiens, UniProt Q9Y2K2); test: ADP-Glo kinase assay, SIK3
T1 construct: purchased SignalChem S12-11G-100
Method in brief: (§1)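 Wells with 1% DMSO or 10 μM staurosporine (final) define the control window. The kinase reaction with substrate and ATP runs 120 min at RT, followed by ADP-Glo detection: ATP depletion (40 min) and ADP-derived luminescence (30 min).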

[2] = molecular target: T2, SIK2 (Homo sapiens, UniProt Q9H0K1); test: ADP-Glo kinase assay, SIK2
T2 construct: purchased ThermoFisher Scientific PV4792
T2 sequence (Q9H0K1 whole entry): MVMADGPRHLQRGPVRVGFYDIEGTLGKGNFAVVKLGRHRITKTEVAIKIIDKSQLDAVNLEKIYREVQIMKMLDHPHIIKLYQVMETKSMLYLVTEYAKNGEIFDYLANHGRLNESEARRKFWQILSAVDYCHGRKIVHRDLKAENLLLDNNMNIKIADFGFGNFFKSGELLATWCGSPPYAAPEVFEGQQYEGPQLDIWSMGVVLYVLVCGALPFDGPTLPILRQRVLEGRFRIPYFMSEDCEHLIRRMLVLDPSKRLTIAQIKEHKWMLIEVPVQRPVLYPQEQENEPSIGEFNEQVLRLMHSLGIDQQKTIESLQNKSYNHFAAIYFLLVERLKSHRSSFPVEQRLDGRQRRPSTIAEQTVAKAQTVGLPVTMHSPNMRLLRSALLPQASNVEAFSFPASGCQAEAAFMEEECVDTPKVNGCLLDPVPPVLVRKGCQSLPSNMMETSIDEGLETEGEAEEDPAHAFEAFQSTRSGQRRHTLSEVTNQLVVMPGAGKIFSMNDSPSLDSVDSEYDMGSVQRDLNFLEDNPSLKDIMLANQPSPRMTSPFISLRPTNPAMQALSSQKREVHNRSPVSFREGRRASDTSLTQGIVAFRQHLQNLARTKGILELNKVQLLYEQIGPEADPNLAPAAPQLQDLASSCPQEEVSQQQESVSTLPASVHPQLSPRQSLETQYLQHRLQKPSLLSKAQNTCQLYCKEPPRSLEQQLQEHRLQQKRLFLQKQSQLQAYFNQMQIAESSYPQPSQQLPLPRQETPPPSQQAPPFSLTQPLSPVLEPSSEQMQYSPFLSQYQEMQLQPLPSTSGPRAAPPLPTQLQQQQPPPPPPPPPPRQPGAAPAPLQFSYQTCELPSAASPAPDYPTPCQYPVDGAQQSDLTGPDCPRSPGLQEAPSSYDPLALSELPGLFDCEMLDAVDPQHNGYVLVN
Method in brief: as §1

[3] = molecular target: T3, SIK1 (Homo sapiens, UniProt P57059); test: ADP-Glo kinase assay, SIK1
T3 construct: purchased Carna Biosciences 02-131
T3 sequence (P57059 whole entry): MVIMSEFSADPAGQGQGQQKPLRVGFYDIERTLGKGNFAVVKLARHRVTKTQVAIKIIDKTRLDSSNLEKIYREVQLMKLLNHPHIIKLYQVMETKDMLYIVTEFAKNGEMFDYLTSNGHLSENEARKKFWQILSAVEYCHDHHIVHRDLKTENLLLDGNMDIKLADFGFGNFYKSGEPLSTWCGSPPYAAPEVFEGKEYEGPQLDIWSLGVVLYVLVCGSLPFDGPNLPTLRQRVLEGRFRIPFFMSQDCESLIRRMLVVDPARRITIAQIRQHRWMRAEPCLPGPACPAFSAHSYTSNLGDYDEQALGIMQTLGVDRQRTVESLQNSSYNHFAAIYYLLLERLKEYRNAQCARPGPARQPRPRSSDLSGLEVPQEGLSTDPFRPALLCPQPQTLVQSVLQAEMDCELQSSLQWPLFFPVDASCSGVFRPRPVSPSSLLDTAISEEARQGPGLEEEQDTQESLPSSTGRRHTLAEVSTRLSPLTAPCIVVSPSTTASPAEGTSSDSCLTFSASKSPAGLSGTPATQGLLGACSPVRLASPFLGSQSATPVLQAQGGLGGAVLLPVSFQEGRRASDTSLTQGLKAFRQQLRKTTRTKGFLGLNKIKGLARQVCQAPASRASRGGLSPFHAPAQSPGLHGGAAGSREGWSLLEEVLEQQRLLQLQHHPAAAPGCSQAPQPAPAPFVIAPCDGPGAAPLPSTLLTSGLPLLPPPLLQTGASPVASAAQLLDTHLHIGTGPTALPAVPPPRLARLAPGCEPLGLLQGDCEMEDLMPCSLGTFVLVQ
Method in brief: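 ADP-Glo, RT throughout. Enz/substrate + ATP, 120 min; ADP-Glo reagent 40 min (ATP depletion); detection reagent 30 min; luminescence read. Neg ctrl 1% DMSO, pos ctrl 10 μM staurosporine, final concs.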

T1 sequence (Q9Y2K2 whole entry): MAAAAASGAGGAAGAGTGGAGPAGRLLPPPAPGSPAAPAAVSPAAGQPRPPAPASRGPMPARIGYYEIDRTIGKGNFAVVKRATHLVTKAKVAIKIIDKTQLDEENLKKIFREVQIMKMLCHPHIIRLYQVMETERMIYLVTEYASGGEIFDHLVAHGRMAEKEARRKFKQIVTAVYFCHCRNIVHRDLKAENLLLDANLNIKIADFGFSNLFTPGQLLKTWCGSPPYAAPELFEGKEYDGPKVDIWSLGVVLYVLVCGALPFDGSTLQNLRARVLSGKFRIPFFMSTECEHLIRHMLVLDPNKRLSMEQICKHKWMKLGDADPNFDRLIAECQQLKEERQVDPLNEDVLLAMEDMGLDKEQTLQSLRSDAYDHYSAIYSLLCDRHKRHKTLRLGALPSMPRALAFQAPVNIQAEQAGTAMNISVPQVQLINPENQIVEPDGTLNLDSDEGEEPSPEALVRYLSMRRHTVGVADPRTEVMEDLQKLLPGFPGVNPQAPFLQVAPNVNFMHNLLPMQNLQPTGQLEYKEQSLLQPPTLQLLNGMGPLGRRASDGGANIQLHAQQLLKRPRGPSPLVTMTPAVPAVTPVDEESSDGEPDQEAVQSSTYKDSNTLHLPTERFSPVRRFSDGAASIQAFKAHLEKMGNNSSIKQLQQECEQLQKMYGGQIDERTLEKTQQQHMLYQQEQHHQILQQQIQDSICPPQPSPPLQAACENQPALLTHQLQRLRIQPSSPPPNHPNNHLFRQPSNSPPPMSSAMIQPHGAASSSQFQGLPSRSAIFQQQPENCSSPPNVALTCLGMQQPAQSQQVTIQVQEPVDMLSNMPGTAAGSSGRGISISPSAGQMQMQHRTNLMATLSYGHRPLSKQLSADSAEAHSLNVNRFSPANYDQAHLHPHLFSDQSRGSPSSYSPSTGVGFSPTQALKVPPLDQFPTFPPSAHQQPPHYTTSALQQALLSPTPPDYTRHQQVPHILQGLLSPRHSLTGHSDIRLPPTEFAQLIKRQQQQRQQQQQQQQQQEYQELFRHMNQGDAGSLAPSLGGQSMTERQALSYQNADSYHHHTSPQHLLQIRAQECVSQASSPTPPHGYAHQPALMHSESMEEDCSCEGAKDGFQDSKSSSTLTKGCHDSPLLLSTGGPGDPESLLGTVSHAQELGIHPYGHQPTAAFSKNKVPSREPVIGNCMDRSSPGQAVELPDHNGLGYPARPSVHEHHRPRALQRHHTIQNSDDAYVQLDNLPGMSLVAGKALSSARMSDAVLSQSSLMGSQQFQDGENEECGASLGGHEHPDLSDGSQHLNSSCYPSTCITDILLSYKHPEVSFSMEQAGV

Row | SMILES | IC50 [1] | IC50 [2] | IC50 [3]
1 | COc1cc(-c2cnc3cc(OCCCN4CCCCC4)ccn23)cc(OC(F)F)c1C(=O)N1CC(C#N)C1 [Cpd 357, 1-[2-(difluoromethoxy)-6-methoxy-4-[7-[3-(1-piperidyl)propoxy]imidazo[1,2-a]pyridin-3-yl]benzoyl]azetidine-3-carbonitrile] | 0.01 to 10 nM | 0.01 to 10 nM | 10 to 100 nM
2 | COc1cc(-c2cnc3cc(OCCCN4CCc5ncncc5C4)ccn23)cc(OC(F)F)c1C(=O)NC1CC1 [compound 304, N-cyclopropyl-2-(difluoromethoxy)-4-[7-[3-(7,8-dihydro-5H-pyrido[4,3-d]pyrimidin-6-yl)propoxy]imidazo[1,2-a]pyridin-3-yl]-6-methoxy-benzamide] | 0.01 to 10 nM | 0.01 to 10 nM | 10 to 100 nM
3 | COc1cc(-c2cnc3cc(OCCN(C)CC(F)F)ccn23)cc(OC(F)F)c1C(=O)NC1CC1 [compound 236, N-cyclopropyl-4-[7-[2-[2,2-difluoroethyl(methyl)amino]ethoxy]imidazo[1,2-a]pyridin-3-yl]-2-(difluoromethoxy)-6-methoxy-benzamide] | 0.01 to 10 nM | 0.01 to 10 nM | 10 to 100 nM
4 | COc1cc(-c2cnc3cc(OCC4CCCN4C)ccn23)cc(OC(F)F)c1C(=O)NC1CC1 (stereo not drawn) [compound 28, N-cyclopropyl-2-(difluoromethoxy)-6-methoxy-4-[7-[(1-methylpyrrolidin-2-yl)methoxy]imidazo[1,2-a]pyridin-3-yl]benzamide] | 0.01 to 10 nM | 0.01 to 10 nM | 100 to 500 nM
5 | COc1cc(-c2cnc3cc(OCc4cnn(C)c4)ccn23)cc(OC(F)F)c1C(=O)NC1CC1 [compound 199, N-cyclopropyl-2-(difluoromethoxy)-6-methoxy-4-[7-[(1-methylpyrazol-4-yl)methoxy]imidazo[1,2-a]pyridin-3-yl]benzamide] | 0.01 to 10 nM | 0.01 to 10 nM | 10 to 100 nM
6 | COc1cc(-c2cnc3cc(OCCc4cnn(C)c4)ccn23)cc(OC(F)F)c1C(=O)NC1CC1 [compound 204, N-cyclopropyl-2-(difluoromethoxy)-6-methoxy-4-[7-[2-(1-methylpyrazol-4-yl)ethoxy]imidazo[1,2-a]pyridin-3-yl]benzamide] | 0.01 to 10 nM | 0.01 to 10 nM | 0.01 to 10 nM
7 | COC(=O)C1CN(CCOc2ccn3c(-c4cc(OC)c(C(=O)NC5CC5)c(OC(F)F)c4)cnc3c2)C1 [compound 393, methyl 1-[2-[3-[4-(cyclopropylcarbamoyl)-3-(difluoromethoxy)-5-methoxy-phenyl]imidazo[1,2-a]pyridin-7-yl]oxyethyl]azetidine-3-carboxylate] | 0.01 to 10 nM | 0.01 to 10 nM | 10 to 100 nM
8 | CCOc1ccn2c(-c3cc4c(c(OC)c3)C(=O)N(CC(F)(F)F)CC4)cnc2c1 [Cpd 264, 6-(7-ethoxyimidazo[1,2-a]pyridin-3-yl)-8-methoxy-2-(2,2,2-trifluoroethyl)-3,4-dihydroisoquinolin-1-one] | 0.01 to 10 nM | 10 to 100 nM | 100 to 500 nM
9 | COc1cc(-c2cnc3cc(OC[C@@H]4COCCO4)ccn23)cc(OC(F)F)c1C(=O)NC1CC1 [compound 120, N-cyclopropyl-2-(difluoromethoxy)-4-[7-[[(2S)-1,4-dioxan-2-yl]methoxy]imidazo[1,2-a]pyridin-3-yl]-6-methoxy-benzamide] | 0.01 to 10 nM | 0.01 to 10 nM | 10 to 100 nM
10 | COc1cc(-c2cnc3cc(OC[C@@H]4CCN(C5COC5)C4)ccn23)cc(OC(F)F)c1C(=O)NC1CC1 [compound 336, N-cyclopropyl-2-(difluoromethoxy)-6-methoxy-4-[7-[[(3R)-1-(oxetan-3-yl)pyrrolidin-3-yl]methoxy]imidazo[1,2-a]pyridin-3-yl]benzamide] | 0.01 to 10 nM | 0.01 to 10 nM | 10 to 100 nM
11 | COc1cc(-c2cnc3cc(OCCN(C)c4ccncc4)ccn23)cc(OC(F)F)c1C(=O)NC1CC1 [compound 223, N-cyclopropyl-2-(difluoromethoxy)-6-methoxy-4-[7-[2-[methyl(4-pyridyl)amino]ethoxy]imidazo[1,2-a]pyridin-3-yl]benzamide] | 0.01 to 10 nM | 0.01 to 10 nM | 0.01 to 10 nM
12 | CNC1CC(Oc2ccn3c(-c4cc(OC)c(C(=O)NC5CC5)c(OC(F)F)c4)cnc3c2)C1 (stereo not drawn) [compound 161, N-cyclopropyl-2-(difluoromethoxy)-6-methoxy-4-[7-[3-(methylamino)cyclobutoxy]imidazo[1,2-a]pyridin-3-yl]benzamide] | 0.01 to 10 nM | 0.01 to 10 nM | 10 to 100 nM
13 | COc1cc(-c2cnc3cc(Oc4ccccn4)ccn23)cc(OC(F)F)c1C(=O)NC1CC1 [compound 145, N-cyclopropyl-2-(difluoromethoxy)-6-methoxy-4-[7-(2-pyridyloxy)imidazo[1,2-a]pyridin-3-yl]benzamide] | 10 to 100 nM | 10 to 100 nM | 100 to 500 nM
14 | COc1cc(-c2cnc3cc(OC4CCOC4)ccn23)cc(OC(F)F)c1C(=O)NC1CC1 (stereo not drawn) [compound 163, N-cyclopropyl-2-(difluoromethoxy)-6-methoxy-4-(7-tetrahydrofuran-3-yloxyimidazo[1,2-a]pyridin-3-yl)benzamide] | 0.01 to 10 nM | 10 to 100 nM | 10 to 100 nM
15 | COc1cc(-c2cnc3cc(OCCN4CCOC(C5CC5)C4)ccn23)cc(OC(F)F)c1C(=O)NC1CC1 (stereo not drawn) [compound 196, N-cyclopropyl-4-[7-[2-(2-cyclopropylmorpholin-4-yl)ethoxy]imidazo[1,2-a]pyridin-3-yl]-2-(difluoromethoxy)-6-methoxy-benzamide] | 0.01 to 10 nM | 0.01 to 10 nM | 10 to 100 nM
16 | COc1cc(-c2cnc3cc(OCC4CCCCN4CC(F)(F)F)ccn23)cc(OC(F)F)c1C(=O)NC1CC1 (stereo not drawn) [Cpd 182, N-cyclopropyl-2-(difluoromethoxy)-6-methoxy-4-[7-[[1-(2,2,2-trifluoroethyl)-2-piperidyl]methoxy]imidazo[1,2-a]pyridin-3-yl]benzamide] | 0.01 to 10 nM | 10 to 100 nM | 10 to 100 nM
17 | COc1cc(-c2cnc3cc(OCC(C)(C)CO)ccn23)cc(OC(F)F)c1C(=O)NC1CC1 [compound 74, N-cyclopropyl-2-(difluoromethoxy)-4-[7-(3-hydroxy-2,2-dimethyl-propoxy)imidazo[1,2-a]pyridin-3-yl]-6-methoxy-benzamide] | 0.01 to 10 nM | 0.01 to 10 nM | 10 to 100 nM
18 | COc1cc(-c2cnc3cc(OCCN(C)c4ncccn4)ccn23)cc(OC(F)F)c1C(=O)NC1CC1 [compound 238, N-cyclopropyl-2-(difluoromethoxy)-6-methoxy-4-[7-[2-[methyl(pyrimidin-2-yl)amino]ethoxy]imidazo [1,2-a]pyridin-3-yl]benzamide] | 0.01 to 10 nM | 0.01 to 10 nM | 0.01 to 10 nM
19 | COc1cc(-c2cnc3cc(OCC4CCC4)ccn23)cc(OC(F)F)c1C(=O)NC1CC1 [Cpd 71, 4-[7-(cyclobutylmethoxy)imidazo[1,2-a]pyridin-3-yl]-N-cyclopropyl-2-(difluoromethoxy)-6-methoxy-benzamide] | 0.01 to 10 nM | 0.01 to 10 nM | 0.01 to 10 nM
20 | COc1cc(-c2cnc3cc(OCCCN4CCc5ncccc5C4)ccn23)cc(OC(F)F)c1C(=O)NC1CC1 [compound 311, N-cyclopropyl-2-(difluoromethoxy)-4-[7-[3-(7,8-dihydro-5H-1,6-naphthyridin-6-yl)propoxy]imidazo[1,2-a]pyridin-3-yl]-6-methoxy-benzamide] | 0.01 to 10 nM | 0.01 to 10 nM | 10 to 100 nM
21 | COc1cc(-c2cnc3cc(OCc4ccnn4C)ccn23)cnc1C(=O)NCC(F)(F)F [compound 262, 3-methoxy-5-[7-[(2-methylpyrazol-3-yl)methoxy]imidazo[1,2-a]pyridin-3-yl]-N-(2,2,2-trifluoroethyl)pyridine-2-carboxamide] | 10 to 100 nM | 100 to 500 nM | > 500 nM
22 | Cc1cc(-c2cnc3cc(OCCN4CCOCC4)ccn23)cc(OC(F)F)c1C(=O)NC1CC1 [compound 241, N-cyclopropyl-2-(difluoromethoxy)-6-methyl-4-[7-(2-morpholinoethoxy)imidazo[1,2-a]pyridin-3-yl]benzamide] | 0.01 to 10 nM | 10 to 100 nM | 100 to 500 nM
23 | COc1cc(-c2cnc3cc(OCCOCCN(C)C)ccn23)cc(OC(F)F)c1C(=O)NC1CC1 [compound 65, N-cyclopropyl-2-(difluoromethoxy)-4-[7-[2-[2-(dimethylamino)ethoxy]ethoxy]imidazo[1,2-a]pyridin-3-yl]-6-methoxy-benzamide] | 0.01 to 10 nM | 0.01 to 10 nM | 0.01 to 10 nM
24 | CCC(N)COc1ccn2c(-c3cc(OC)c(C(=O)NC4CC4)c(OC(F)F)c3)cnc2c1 (stereo not drawn) [compound 131, 4-[7-(2-aminobutoxy)imidazo[1,2-a]pyridin-3-yl]-N-cyclopropyl-2-(difluoromethoxy)-6-methoxy-benzamide] | 0.01 to 10 nM | 0.01 to 10 nM | 10 to 100 nM
25 | COc1cc(-c2cnc3cc(OCCCN)ccn23)cc(OC(F)F)c1C(=O)NC1CC1 [compound 115, 4-[7-(3-aminopropoxy)imidazo [1,2-a]pyridin-3-yl]-N-cyclopropyl-2-(difluoromethoxy)-6-methoxy-benzamide] | 0.01 to 10 nM | 0.01 to 10 nM | 10 to 100 nM
26 | COc1cc(-c2cnc3cc(OCCCN4CCn5cccc5C4)ccn23)cc(OC(F)F)c1C(=O)NC1CC1 [compound 310, N-cyclopropyl-2-(difluoromethoxy)-4-[7-[3-(3,4-dihydro-1H-pyrrolo[1,2-a]pyrazin-2-yl)propoxy]imidazo[1,2-a]pyridin-3-yl]-6-methoxy-benzamide] | 0.01 to 10 nM | 0.01 to 10 nM | 10 to 100 nM

From patent publication US12264156B2, “Compounds and pharmaceutical compositions thereof for the treatment of diseases” (GALAPAGOS NV, priority 2018, dated 2025)
